Values quoted from earlier work as cited in patent US20250367263A9, “Therapeutic Regimens and Methods for Treatment of Cardiovascular Risk Factors using a GLP-1R and GCGR Agonist” (Spitfire Pharma LLC, priority 2022, published 2025).

CCCCCCCCCCCCCCCC(=O)N[C@@H](CCC(=O)NCCCC[C@H](NC(=O)[C@H](CC(=O)O)NC(=O)[C@H](CO)NC(=O)[C@@H](NC(=O)[C@H](Cc1ccccc1)NC(=O)[C@@H](NC(=O)CNC(=O)[C@H](CCC(N)=O)NC(=O)[C@H](CO)NC(=O)[C@@H](N)Cc1c[nH]cn1)[C@@H](C)O)[C@@H](C)O)C(=O)N[C@@H](CO)C(=O)N[C@@H](CCC(=O)O)C(=O)N[C@@H](Cc1ccc(O)cc1)C(=O)N[C@@H](CC(C)C)C(=O)N[C@@H](CC(=O)O)C(=O)N[C@@H](CO)C(=O)N[C@@H](CCC(=O)O)C(=O)N[C@@H](CCCNC(=N)N)C(=O)N[C@@H](C)C(=O)N[C@@H](CCCNC(=N)N)C(=O)N[C@@H](CC(=O)O)C(=O)N[C@@H](Cc1ccccc1)C(=O)N[C@H](C(=O)N[C@@H](C)C(=O)N[C@@H](Cc1c[nH]c2ccccc12)C(=O)N[C@@H](CC(C)C)C(=O)N[C@@H](CCC(=O)O)C(=O)N[C@@H](C)C(=O)NCC(=O)NCC(=O)O)C(C)C)C(=O)O [cotadutide]
reduction in liver fat content (6 weeks): 39% | NASH-related alanine aminotransferase (ALT) reduction, versus liraglutide alone (human, in vivo): greater improvement
